Assay: bromfenac in solution in the flowable mucoadhesive polymer carrier
Assay type: physicochemical
Conditions: by weight of the composition
Text: As used herein the term “retained in or carried with” or “retaining or carrying” embraces generally all ways that bromfenac can be associated with the flowable mucoadhesive polymer. For example, bromfenac can be in aqueous solution dispersed throughout the polymer. A bromfenac concentration of up to about 0.36% will be in solution mixed with or dispersed throughout the flowable mucoadhesive polymer carrier. Bromfenac can also be in suspension with the polymer depending on its concentration. For example, when bromfenac is used in an amount more than about 0.36% by weight of the composition, some of the bromfenac can be in suspension with the polymer carrier while an amount of up to about […] of bromfenac will still be in solution and mixed with the polymer carrier.

bromfenac concentration in solution mixed with or dispersed throughout the polymer carrier: up to 0.36%
Compound: Nc1c(CC(=O)O)cccc1C(=O)c1ccc(Br)cc1 [bromfenac]
